Source: patent publication US20260138990A1, “TRICYCLIC FUSED IMIDAZOLE COMPOUNDS AS CD38 MODULATORS AND USES THEREOF” (AEOVIAN PHARMACEUTICALS, INC., priority 2023, published 2026)

How the values were obtained:
[1] = molecular target: T1, mouse CD38 (Mus musculus, UniProt P56528); assay: NAD+ cyclase activity assay with mouse recombinant CD38 protein (ε-NAD fluorescence); assay type: biochemical; conditions: 0.6 nM mouse CD38, substrate ε-NAD, 30 min preincubation, fluorescence 300/410 nm
T1 construct: purchased Bio-Techne GmbH 4947-AC
T1 sequence (P56528 1-304): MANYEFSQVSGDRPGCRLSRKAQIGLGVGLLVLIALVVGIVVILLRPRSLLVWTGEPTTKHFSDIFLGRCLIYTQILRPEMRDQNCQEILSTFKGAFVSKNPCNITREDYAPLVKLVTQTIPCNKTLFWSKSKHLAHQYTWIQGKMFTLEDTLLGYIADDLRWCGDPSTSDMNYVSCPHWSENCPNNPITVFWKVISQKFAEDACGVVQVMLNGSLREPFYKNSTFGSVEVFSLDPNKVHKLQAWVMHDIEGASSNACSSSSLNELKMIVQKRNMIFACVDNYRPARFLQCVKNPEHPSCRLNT
Protocol: (§1) Example 4: NAD^+ Cydase Activity Assay with Human or Mouse Recombinant CD38 Protein
(§2) The following assay was used to determine the ability of compounds of the invention to inhibit the hydrolysis of NAD^+ by the human or mouse enzyme, CD38.
(§3) Reaction buffer: 40 mM HEPES/NaOH pH 7.5, 250 mM sucrose, 0.01% Tween
(§4) Final concentrations: 0.6 nM mouse CD38 (4947-AC, Bio-Techne GmbH) 1.9 nM human CD38 (AVI2404, Bio-Techne GmbH)
(§5) Substrate: […] Nicotinamide 1,N6-ethenoadenine dinucleotide (&-NAD)
(§6) Read-out: Fluorescence intensity (extinction 300 nm/emission 410 nm)
(§7) Required reaction buffer, required CD38 concentration in reaction buffer and required e-NAD concentration in reaction buffer were prepared. Thereafter, 8 μL of CD38 in reaction buffer was added to High Control and compound concentration wells in 384 well plate (Corning #4514, 384 well, nonbinding surface, low volume, round bottom) and 8 μL of reaction buffer to Low Control. Compound dilutions were transferred via pintool technology that transfers 42.5 nL compound dilutions (12-point dose-response with factor three dilutions in 100% DMSO) well-to-well. Plate was subsequently shaken for 15 s at 1450 rpm and sealed for incubation for 30 min at room temperature. Thereafter, 2 μL of e-NAD in reaction buffer were added with Integra Voyager. After shaking for 15 s at 1450 rpm, plate was sealed, and assay signal were measured continuously with PHERAstar® fluorescence intensity module (extinction 300 nm/emission 410 nm).
(§8) Dose-response curves were constructed using twelve-pointfactor three dilutions in triplicates per plate. High control (full enzyme activity) was set to assay signal of CD38 and e-NAD in presence of vehicle (DMSO) and Low control (full enzyme inhibition) was set to assay signal of e-NAD and vehicle (DMSO) in absence of CD38. For data analysis, fluorescent signal of traces corresponding to each compound concentration and High and Low control were monitored over time. Each run, High Control (full enzyme activity) was fitted to Linear equation via GraphPad Prism to determine CD38 activity from the slope and determine the time interval of linear phase of reaction to account for minor fluctuations. Thereafter, slopes of all compound concentrations were determined via fitting to same linear equation (GraphPad Prism) over the same time interval as determined for High control. […] Unless otherwise stated, fitting of curves were fixed to 100%-inhibition and unlocked for 0%-inhibition.

[2] = molecular target: T2, human CD38 (Homo sapiens, UniProt P28907); assay: NAD+ cyclase activity assay with human recombinant CD38 protein (ε-NAD fluorescence); assay type: biochemical; conditions: 1.9 nM human CD38, substrate ε-NAD, 30 min preincubation, fluorescence 300/410 nm
T2 construct: purchased Bio-Techne GmbH AVI2404
T2 sequence (P28907 1-300): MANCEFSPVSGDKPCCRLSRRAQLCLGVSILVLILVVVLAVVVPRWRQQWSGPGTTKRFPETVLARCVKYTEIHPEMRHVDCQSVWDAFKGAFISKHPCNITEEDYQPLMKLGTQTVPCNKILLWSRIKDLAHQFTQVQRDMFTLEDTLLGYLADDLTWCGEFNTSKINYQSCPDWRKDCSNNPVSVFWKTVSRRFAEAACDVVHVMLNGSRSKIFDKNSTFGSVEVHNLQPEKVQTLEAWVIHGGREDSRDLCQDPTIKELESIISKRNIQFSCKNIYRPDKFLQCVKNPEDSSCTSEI
Protocol: as §1, §2, §3, §4, §5, §6, §7, §8

IC50 [1] | IC50 [2] | Molecule
0.001 to 0.01 µM | < 0.03 µM | COC(C)(C)CO[C@H]1CC[C@H](NC(=O)c2ccc3c(c2)-c2cncn2CCO3)CC1 [Compound 127A, N-((1r,4r)-4-(2-Methoxy-2-methylpropoxy)cyclohexyl)-5,6-dihydrobenzo[f]imidazo[1,5-d][1,4]oxazepine-10-carboxamide]
0.001 to 0.01 µM | < 0.03 µM | O=C(NC1CCCC(C(F)(F)F)C1)c1cc(F)c2c(c1)-c1cncn1CCO2 (stereo not drawn) [Compound 161A, 8-Fluoro-N-(3-(trifluoromethyl)cyclohexyl)-5,6-dihydrobenzo[f]imidazo[1,5-d][1,4]oxazepine-10-carboxamide]
0.001 to 0.01 µM | < 0.03 µM | O=C(NC1CCCC(C(F)(F)F)C1)c1ccc2c(c1)-c1cncn1CCO2 (stereo not drawn) [Compound 151A, N-(3-(Trifluoromethyl)cyclohexyl)-5,6-dihydrobenzo[f]imidazo[1,5-d][1,4]oxazepine-10-carboxamide]
< 0.001 µM | < 0.03 µM | C[C@H](N[C@H]1CC[C@H](NC(=O)c2ccc3c(c2)-c2cncn2CCO3)CC1)C(F)(F)F [Compound 87A, N-((1r,4r)-4-(((S)-1,1,1-Trifluoropropan-2-yl)amino)cyclohexyl)-5,6-dihydrobenzo[f]imidazo[1,5-d][1,4]oxazepine-10-carboxamide]
< 0.001 µM | < 0.03 µM | O=C(N[C@@H]1CCCC(F)(F)C1)c1ccc2c(c1)-c1cncn1CCO2 [Compound 116A, (R)—N-(3,3-Difluorocyclohexyl)-5,6-dihydrobenzo[f]imidazo[1,5-d][1,4]oxazepine-10-carboxamide]
0.001 to 0.01 µM | < 0.03 µM | CNc1nc2ccc(C(=O)N[C@@H]3CCCOC3)cc2n2cncc12 [Compound 28A, (R)-4-(Methylamino)-N-(tetrahydro-2H-pyran-3-yl)imidazo[1,5-a]quinoxaline-8-carboxamide]
< 0.001 µM | < 0.03 µM | O=C(N[C@H]1CC[C@H](OCC(F)(F)F)CC1)c1cc(F)c2c(c1)-c1cncn1CCO2 [Compound 155A, 8-Fluoro-N-((1r,4r)-4-(2,2,2-trifluoroethoxy)cyclohexyl)-5,6-dihydrobenzo[f]imidazo[1,5-d][1,4]oxazepine-10-carboxamide]
< 0.001 µM | < 0.03 µM | COCCO[C@H]1CC[C@H](NC(=O)c2cc(Br)c3c(c2)-c2cncn2CCO3)CC1 [Compound 46A, 8-Bromo-N-((1r,4r)-4-(2-methoxyethoxy)cyclohexyl)-5,6-dihydrobenzo[f]imidazo[1,5-d][1,4]oxazepine-10-carboxamide]
> 0.1 µM | > 1 µM | O=C(N[C@@H]1CCCOC1)c1ccc2c(c1)-n1ccnc1CCO2 [Compound 14A, (R)—N-(Tetrahydro-2H-pyran-3-yl)-4,5-dihydrobenzo[b]imidazo[1,2-d][1,4]oxazepine-9-carboxamide]
0.01 to 0.1 µM | 0.1 to 1 µM | COCCO[C@H]1CC[C@H](NC(=O)c2ccc3c(n2)-n2cncc2CCO3)CC1 [Compound 70A, N-((1r,4r)-4-(2-Methoxyethoxy)cyclohexyl)-6,7-dihydroimidazo[1,5-d]pyrido[3,2-b][1,4]oxazepine-2-carboxamide]
0.001 to 0.01 µM | < 0.03 µM | O=C(N[C@H]1CC[C@H](NCC(F)(F)F)CC1)c1ccc2c(c1)-c1cncn1CCO2 [Compound 62A, N-((1r,4r)-4-((2,2,2-Trifluoroethyl)amino)cyclohexyl)-5,6-dihydrobenzo[f]imidazo[1,5-d][1,4]oxazepine-10-carboxamide]
< 0.001 µM | < 0.03 µM | O=C(N[C@H]1CC[C@H](CO)CC1)c1ccc2c(c1)-c1cncn1CCO2 [Compound 65A, N-((1r,4r)-4-(Hydroxymethyl)cyclohexyl)-5,6-dihydrobenzo[f]imidazo[1,5-d][1,4]oxazepine-10-carboxamide]
0.001 to 0.01 µM | 0.03 to 0.1 µM | O=C(N[C@H]1CC[C@@H](OCC(F)(F)F)CC1)c1cc(Cl)c2c(c1)-c1cncn1CCO2 [Compound 158A, 8-Chloro-N-((1s,4s)-4-(2,2,2-trifluoroethoxy)cyclohexyl)-5,6-dihydrobenzo[f]imidazo[1,5-d][1,4]oxazepine-10-carboxamide]

The remaining lines, values behind:

Molecule | IC50 [1] | IC50 [2]
O=C(N[C@@H]1CCS(=O)(=O)C1)c1cc(F)c2c(c1)-c1cncn1CCO2 [Compound 132A, (R)—N-(1,1-Dioxidotetrahydrothiophen-3-yl)-8-fluoro-5,6-dihydrobenzo[f]imidazo[1,5-d][1,4]oxazepine-10-carboxamide] | 0.001 to 0.01 µM | < 0.03 µM
O=C(Nc1ccc2c(c1)COC2)c1ccc2c(c1)-c1cncn1CCO2 [Compound 33A, N-(1,3-Dihydroisobenzofuran-5-yl)-5,6-dihydrobenzo[f]imidazo[1,5-d][1,4]oxazepine-10-carboxamide] | 0.001 to 0.01 µM | < 0.03 µM
O=C(N[C@H]1CCc2ccccc21)c1ccc2c(c1)-c1cncn1CCO2 [Compound 6A, (S)—N-(2,3-Dihydro-1H-inden-1-yl)-5,6-dihydrobenzo[f]imidazo[1,5-d][1,4]oxazepine-10-carboxamide] | 0.001 to 0.01 µM | < 0.03 µM
CS(=O)(=O)N1Cc2ccc(NC(=O)c3ccc4c(c3)-c3cncn3CCO4)cc2C1 [Compound 25A, N-(2-(Methylsulfonyl)isoindolin-5-yl)-5,6-dihydrobenzo[f]imidazo[1,5-d][1,4]oxazepine-10-carboxamide] | 0.001 to 0.01 µM | < 0.03 µM
O=C(Nc1cnc(N2CC(F)(F)C2)nc1)c1ccc2c(c1)-c1cncn1CCO2 [Compound 99A, N-(2-(3,3-Difluoroazetidin-1-yl)pyrimidin-5-yl)-5,6-dihydrobenzo[f]imidazo[1,5-d][1,4]oxazepine-10-carboxamide] | 0.01 to 0.1 µM | < 0.03 µM
O=C(N[C@H]1CC[C@@H](OC2CC(F)(F)C2)CC1)c1cc(F)c2c(c1)-c1cncn1CCO2 [Compound 167A, N-((1s,4s)-4-(3,3-Difluorocyclobutoxy)cyclohexyl)-8-fluoro-5,6-dihydrobenzo[f]imidazo[1,5-d][1,4]oxazepine-10-carboxamide] | 0.01 to 0.1 µM | 0.1 to 1 µM
O=C(Nc1ccc2c(n1)OCCO2)c1ccc2c(c1)-c1cncn1CCO2 [Compound 30A, N-(2,3-Dihydro-[1,4]dioxino[2,3-b]pyridin-6-yl)-5,6-dihydrobenzo[f]imidazo[1,5-d][1,4]oxazepine-10-carboxamide] | 0.001 to 0.01 µM | < 0.03 µM
N-((1r,4r)-4-((Tetrahydrofuran-2-yl)methoxy)cyclohexyl)-5,6-dihydrobenzo[f]imidazo[1,5-d][1,4]oxazepine-10-carboxamide [Compound 76A] | 0.001 to 0.01 µM | < 0.03 µM
C[C@@H]1CCC[C@H](C)[C@H]1NC(=O)c1cc(F)c2c(c1)-c1cncn1CCO2 [Compound 176A, N-(trans-2-trans-6-Dimethylcyclohexyl)-8-fluoro-5,6-dihydrobenzo[f]imidazo[1,5-d][1,4]oxazepine-10-carboxamide] | 0.001 to 0.01 µM | < 0.03 µM
CC(C)(C)OC(=O)N1Cc2ccc(NC(=O)c3ccc4c(c3)-c3cncn3CCO4)cc2C1 [Compound 23A, tert-Butyl 5-(5,6-dihydrobenzo[f]imidazo[1,5-d][1,4]oxazepine-10-carboxamido)isoindoline-2-carboxylate] | 0.01 to 0.1 µM | 0.03 to 0.1 µM
O=C(N[C@H]1CC[C@@H](OC2CC(F)(F)C2)CC1)c1ccc2c(c1)-c1cncn1CCO2 [Compound 153A, N-((1s,4s)-4-(3,3-Difluorocyclobutoxy)cyclohexyl)-5,6-dihydrobenzo[f]imidazo[1,5-d][1,4]oxazepine-10-carboxamide] | 0.01 to 0.1 µM | 0.1 to 1 µM
